We go through 1 molecule from patent US7884077B2, “Methods for the treatment of mood disorders” (The McLean Hospital Corporation, priority 2006, dated 2011).

Entries after “also recorded” stand apart in the source; their conditions may differ.

In series [1] the test system is sigma receptors. As to conditions: Bidlack et al., 2000; cited from earlier work.
Series [2] relates to human subjects who have been diagnosed with bipolar disorder and are acutely manic. The series can be described thus: Open-label cumulative-dosing clinical trial of pentazocine in acutely manic subjects. It is filed as in vivo. Conditions: for YMRS mean: morning. Here is the method: A trial study was conducted to determine the effect of pentazocine on the mood of human subjects who have been diagnosed with bipolar disorder and are acutely manic. Ten subjects (7 male and 3 female) between the ages of 18 and 65 were enrolled in the study. All subjects were admitted to the hospital with a primary diagnosis of bipolar mania by DSMIV criteria. […] Subjects with a current history of substance abuse or a recent history of opiate dependence were excluded. All subjects were deemed competent to give informed consent by non-study physicians. After complete description of the study to the subjects, written informed consent was obtained.
The current study was undertaken in full compliance with federal requirements and with institutional review board approval. The study was designed as an open-label cumulative-dosing trial.
The three-day study consisted of pre-treatment, treatment, and post-treatment days with subjects rated in the morning on all three days and multiple times on the day of treatment. On the treatment day, an initial 50 mg of pentazocine was given by mouth. A second dose was given two hours following the initial dose. Pentazocine was given as Talwin Nx (Sanofi-Synthlabo), consisting of 50 mg dose pentazocine with 0.5 mg naloxone (naloxone is added to limit the intra-venous abuse potential of this drug but is not absorbed when given by oral administration as used here).
Assessment of manic symptoms by YMRS were made daily at the same time in the morning on all three days of the study. As the YMRS was designed to reflect the past 48 hours, it is not sensitive to acute symptomatic change (IsHak et al, 2002) YMRS and DSMIV criteria were used as the basis for constructing a scale to detect acute changes in manic symptoms (The Mania Acute Change Scale or MACS). […] The MACS scale is available online at www.mcleanhospital.org. The MACS, which includes items from the YMRS and a brief assessment of dysphoria/depression was given along with the YMRS in the morning on all three days of the study. In addition, the MACS was given hourly for 6 hours starting with the first dose of pentazocine. All investigator ratings were performed by investigator Beth Murphy, M. D., Ph.D. A self-rating scale designed to assess manic symptoms and medication side effects was completed by subjects whenever the MACS was given. Staff reports were reviewed, with special note of the duration of sleep and whether any ‘pro re nata’ (PRN) medications were required. Data were analyzed using a repeated measures ANOVA (SPSS 14.0).

Series [3] concerns the target KOR (Homo sapiens, UniProt P41145). As to conditions: Zhu et al., 1997; cited from earlier work.
The target in series [4] is mu opiate receptors (Homo sapiens, UniProt P35372). As to conditions: Bidlack et al., 2000; cited from earlier work.
Chain of mu opiate receptors (P35372 whole entry): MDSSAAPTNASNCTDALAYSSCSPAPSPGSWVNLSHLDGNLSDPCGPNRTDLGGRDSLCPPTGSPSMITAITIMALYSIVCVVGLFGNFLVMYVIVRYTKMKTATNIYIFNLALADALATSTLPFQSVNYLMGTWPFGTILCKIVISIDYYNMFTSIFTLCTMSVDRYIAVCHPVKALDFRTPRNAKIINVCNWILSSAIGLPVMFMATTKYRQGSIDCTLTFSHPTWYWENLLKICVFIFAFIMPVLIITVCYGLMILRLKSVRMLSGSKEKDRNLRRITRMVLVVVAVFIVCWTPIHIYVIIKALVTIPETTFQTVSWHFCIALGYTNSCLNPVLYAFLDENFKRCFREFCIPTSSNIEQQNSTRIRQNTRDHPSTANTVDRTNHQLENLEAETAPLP
Where [5] appears, read: 50 mg by mouth at Hour 0 and Hour 2, hourly ratings.
[6] abbreviates: one hour after first 50 mg oral dose.
Where [7] appears, read: second 50 mg oral dose given at hour 2.

Chain of KOR (P41145 whole entry): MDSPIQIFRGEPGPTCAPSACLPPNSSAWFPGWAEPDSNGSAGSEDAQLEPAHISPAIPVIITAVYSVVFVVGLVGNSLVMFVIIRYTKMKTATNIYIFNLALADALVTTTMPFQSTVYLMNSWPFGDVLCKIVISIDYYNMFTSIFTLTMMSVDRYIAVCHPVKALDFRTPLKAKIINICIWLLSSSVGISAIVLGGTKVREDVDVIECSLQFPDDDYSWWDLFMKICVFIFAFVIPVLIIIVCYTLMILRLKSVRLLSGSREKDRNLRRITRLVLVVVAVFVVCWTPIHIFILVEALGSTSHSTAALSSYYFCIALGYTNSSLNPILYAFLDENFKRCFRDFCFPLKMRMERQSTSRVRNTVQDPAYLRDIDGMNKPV

Take `CC(C)=CCN1CCC2(C)c3cc(O)ccc3CC1C2C` (centres unmarked) [pentazocine]: in series [1], the “affinity and effects at sigma receptors relative to KOR” value is “lower affinity and weaker effects”. In addition, the dysphoria result in series [2] (50 mg by mouth at Hour 0 and Hour 2) is “No dysphoria was reported; also recorded: None of the subjects complained of dysphoria”. In series [2] (setting [5]), the “effect on manic symptoms (total MACS score)” value was “manic symptoms decreased; also recorded: All subjects experienced an improvement in manic symptoms; also recorded: transient but substantial and statistically significant reduction in manic symptoms”; the “effect on psychotic symptoms (clinician rating)” value is “no significant changes in psychosis; also recorded: No subject experienced exacerbation of psychotic symptoms; also recorded: most subjects experienced a mild improvement in psychotic symptoms”; the “sedation (clinician rating, scale of 0-4)” value is on record as “mild (half-point), nonsignificant, increases in sedation; also recorded: Sedation was low”. In addition, in series [2] (Hour 0 (baseline), before first dose), the “mean total MACS score” value is 20.1. Moreover, the “mean total MACS score” value in series [2] (hour 2, when second dose was given) worked out at 18.6. Besides, the “mean total MACS score” value in series [2] (hour 3, one hour after second 50 mg oral dose) is 11.0. In series [2] (setting [6]), the “mean change in total manic symptom ratings (MACS) from baseline” value is recorded as −8.8 and the “mean total MACS score” value turned out to be 11.3. For the same molecule, the “mean change in total manic symptom ratings from baseline (decrease)” value in series [2] (one hour after first 50 mg oral dose, MACS, 10 subjects) is recorded as 44%. In series [2] (post-treatment day), the “rebound in symptoms after treatment” value was “no evidence of a rebound in symptoms after treatment” and the YMRS mean amounted to 12.7 ± 8.4. Also, the YMRS mean in series [2] (pretreatment day) is recorded as 23.6 ± 8.9. For the same molecule, in series [2] (setting [7]), the “fall in mean MACS score between hour 2 and hour 3” value is given as 7.6 points; the “fall in mean total manic symptom ratings (MACS) between hour 2 and hour 3” value was found to be 41%. The same molecule came in with a YMRS mean in series [2] (treatment day) of 22.0 ± 6.9. The “tolerability / side effects” value in series [2] (two 50 mg oral doses two hours apart) is “well-tolerated; also recorded: No subject experienced significant side effects; also recorded: No adverse effects, including psychotomimetic effects, were observed or reported”. In addition, the “efficacy at KOR” value in series [3] is reported as “partial agonist”. In addition, the “affinity and effects at mu opiate receptors relative to KOR” value in series [4] was “lower affinity and weaker effects”.
